From publication PMC10384246, “Discovery of New Uracil and Thiouracil Derivatives as Potential HDAC Inhibitors” (Pharmaceuticals, 2023)
“And” between values parts separate entries of the source, which are not always exact repeats. Equal values may be shown once.

Key:
[1] = system: MCF-7 (human breast cancer cell line); test: MTT anti-proliferative assay, MCF-7; assay type: cell-based; conditions: MCF7, MCF-7, mean of at least three experiments, read-out: Cytotoxicity IC50 MCF-7
Experimental: (§1) Sorafenib was used as a reference drug.
(§2) Anti-proliferative activity activities were tested using MTT assay as described in Supplementary Materials. […]
(§3) S2.1. In vitro anti-proliferative activities
(§4) The in vitro antiproliferative activities of all the synthesized compounds against three human tumor cell lines namely, MCF-7 (human breast cancer cell line), HepG2 (human liver […]
(§5) in the literature, using MTT assay protocol. Sorafenib was used in this test as a positive control.
(§6) The anti-proliferative activity was assessed quantitatively as follows.
(§7) Human cancer cell lines were seeded in 96-well plates at a density of 3-8 × 10^3 cells/well.
(§8) Next, the cells were incubated for 12 h in a 5% CO2 incubator at 37 °C. Then, for each well, the growth medium was exchanged with 0.1 ml of fresh medium containing graded concentrations of the test compounds or equal DMSO. Then 10 μl MTT solution ([…]) was added to each well, and the cells were incubated for additional 4 h. The crystals of MTT-formazan were dissolved in 100 μl of DMSO; the absorbance of each well was measured at 490 nm using an automatic ELISA reader system (TECAN, CHE). The IC50 values were calculated using the nonlinear regression fitting models (Graph Pad, Prism Version 5). The data represented the mean of three independent experiments in triplicate and were expressed as means ± SD. The IC50 value was […]
(§9) defined as the concentration at which 50% of the cells could survive. […]

[2] = system: HepG2 (human liver carcinoma cell line); test: MTT anti-proliferative assay, HepG2; assay type: cell-based; conditions: HepG2, mean of at least three experiments, read-out: Cytotoxicity IC50 HepG-2
Experimental: as §1, §2, §3, §4, §5, §6, §7, §8, §9

[3] = system: colorectal carcinoma (HCT-116); test: MTT anti-proliferative assay, HCT-116; assay type: cell-based; conditions: Homo sapiens, HCT-116, read-out: Cytotoxicity IC50 HCT-116
Experimental: as §1, §2, §3, §4, §5, §6, §7, §8, §9

HDAC1 = HDAC1 (Homo sapiens, UniProt Q13547); test: In vitro HDAC1 inhibitory assay; assay type: biochemical
HDAC4 = HDAC4 (Homo sapiens, UniProt P56524); test: In vitro HDAC4 inhibitory assay; assay type: biochemical
HCT-116 cells [4] = test: Flow cytometry cell cycle analysis; assay type: cell-based, human; conditions: 78 µM, 72 h, share of cells in phase
Experimental: The effect of the most promising compound, 5m, against the cell cycle was tested in HCT116 cells.
Cell cycle analysis was performed for compound 5m as described in Supplementary Materials. […]
defined as the concentration at which 50% of the cells could survive. The results were expressed […]
S2.2. In-vitro DNA-Flow cytometric (cell cycle) analysis. […]
h. Then, the tested cells were collected by trypsinization and washed in PBS. Ice - cold absolute ethanol was used for fixation of the collected cells. The cells were stained with Cycle TESTTM PLUS DNA Reagent Kit (BD Biosciences, San Jose, CA) accord ing to the manufacturer's instructions. Cell -cycle distribution was evaluated using a flow cytometer.
(§10) S2.3. Annexin V - FITC apoptosis assay.
(§11) To detect the apoptosis induced by compound 5m , HCT-116 cells were seeded and incubated overnight and then treated with compound 5m at concentrations of 78 µM for 72 h. DMSO was chosen as the negative control. After that, the cells were collected and washed with PBS two successive times with centrifugation. Apoptosis detection kit (BD Biosciences, San Jose, CA) was used in this test. According to the manufacturer's protocol the cells were stained by Annexin V-FITC and propidium iodide (PI) in the binding b uffer for 20min at room temperature in the dark. Using a flow cytometer, Annexin V-FITC and PI binding were analyzed. Flowjo software was used to analyze the frequencies in all quadrants.
(§12) S2.4. Apoptotic effect of compound 5m treatment. […]
(§13) cells treated with compound 5m. […]

HCT-116 cells [5] = test: Annexin-V/propidium iodide apoptosis assay; assay type: cell-based, human; conditions: 78 µM, 72 h
Experimental: The tested cells were subjected to 78 µM from compound 5m with an incubation time of 72 h.
The apoptotic effect of the compound 5m was tested as described in Supplementary data. Quantitative Real-Time Reverse-Transcriptase PCR (qRT-PCR) technique Using qRT-PCR, the effect of compound 5m on the expression of cleaved caspase-3 and caspase-8 was determined (Supplementary Materials). […]
as §10, §11, §12, §13

caspase-3 = test: qRT-PCR caspase-3 level; assay type: cell-based, human; conditions: HCT-116 cells, 72 h, versus untreated cells
Experimental: (§14) Quantitative Real Time Reverse-Transcriptase PCR technique (determination of caspase-3
(§15) The total RNA was extracted from the control and treated cells by using RNeasy mini kit
(§16) (Qiagen, Germany) according the manufacturer's protocol. Then, the isolated RNAs were
(§17) quantitatively and qualitatively assessed using a NanoDrop®1000 spectrophotometer (Thermo
(§18) Scientific, Wilmington, DE, USA). The RNA aliquots were preserved at - 80 °C till the next
(§19) Reverse transcription and quantification of caspase-3 and caspase-8 mRNA
expressions using qRT-PCR:
(§20) iScriptTM One-Step RT-PCR Kit with SYBR® Green kit (BIORAD Laboratories, USA) was used
(§21) for reverse transcription of total RNA and quantification of the targeted mRNA expressions in
(§22) single reaction tube. In depth, the complementary DNA (cDNA) was performed efficiently from
(§23) the isolated RNA using iScriptTM MMLV (Moloney Murine Leukemia Virus) reverse
(§24) transcriptase. While, the relative expression levels of caspase -3 and caspase-8 mRNA were
(§25) determined using 2X SYBR® Green RT -PCR Reaction Mix, containing iTaq TM DNA polymerase
(§26) and SYBR® Green I dye, on the basis of the manufacturer’s guidelines. GAPDH was used as
(§27) housekeeping gene for data normalization. The reaction Mix consisted of 10 μL of 2X SYBR®
(§28) Green RT-PCR Reaction Mix, 1 μl of forward primer, 1 μl of reverse primer, 1 μl of iScript […]
(§29) were determined by using the 2- ΔΔct method.

caspase-8 = test: qRT-PCR caspase-8 level; assay type: cell-based, human; conditions: HCT-116 cells, 72 h, versus untreated cells
Experimental: as §14, §15, §16, §17, §18, §19
expressions using qRT-PCR:
as §20, §21, §22, §23, §24, §25, §26, §27, §28, §29

in vitro = conditions: human

HDAC4, sequence (P56524 whole entry): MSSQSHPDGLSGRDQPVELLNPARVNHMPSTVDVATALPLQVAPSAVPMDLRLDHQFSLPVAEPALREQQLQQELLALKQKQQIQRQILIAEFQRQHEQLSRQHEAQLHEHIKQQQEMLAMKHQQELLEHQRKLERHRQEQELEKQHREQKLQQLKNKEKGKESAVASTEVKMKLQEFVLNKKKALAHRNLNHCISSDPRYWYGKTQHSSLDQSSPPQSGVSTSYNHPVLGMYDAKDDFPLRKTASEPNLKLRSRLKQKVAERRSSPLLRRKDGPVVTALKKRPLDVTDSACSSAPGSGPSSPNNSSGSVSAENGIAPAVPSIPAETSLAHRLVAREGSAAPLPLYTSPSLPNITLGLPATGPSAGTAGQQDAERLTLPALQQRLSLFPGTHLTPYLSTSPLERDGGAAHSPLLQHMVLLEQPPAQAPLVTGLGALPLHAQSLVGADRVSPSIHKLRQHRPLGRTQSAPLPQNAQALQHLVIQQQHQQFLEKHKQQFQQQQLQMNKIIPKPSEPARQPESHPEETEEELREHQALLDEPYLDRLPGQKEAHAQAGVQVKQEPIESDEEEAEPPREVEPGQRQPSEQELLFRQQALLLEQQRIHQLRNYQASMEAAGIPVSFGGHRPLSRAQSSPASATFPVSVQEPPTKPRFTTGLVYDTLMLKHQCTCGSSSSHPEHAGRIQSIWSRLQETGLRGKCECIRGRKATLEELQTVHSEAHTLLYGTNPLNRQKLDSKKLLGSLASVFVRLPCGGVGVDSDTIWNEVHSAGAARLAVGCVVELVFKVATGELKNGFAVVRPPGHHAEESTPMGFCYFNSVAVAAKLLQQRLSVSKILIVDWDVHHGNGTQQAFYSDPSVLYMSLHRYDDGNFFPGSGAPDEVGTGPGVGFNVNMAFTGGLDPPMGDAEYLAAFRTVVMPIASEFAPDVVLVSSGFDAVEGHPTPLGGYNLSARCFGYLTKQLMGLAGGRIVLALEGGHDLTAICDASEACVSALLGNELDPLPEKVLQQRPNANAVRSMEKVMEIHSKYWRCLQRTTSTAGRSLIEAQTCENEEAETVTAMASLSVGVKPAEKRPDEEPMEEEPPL
HDAC1, sequence (Q13547 whole entry): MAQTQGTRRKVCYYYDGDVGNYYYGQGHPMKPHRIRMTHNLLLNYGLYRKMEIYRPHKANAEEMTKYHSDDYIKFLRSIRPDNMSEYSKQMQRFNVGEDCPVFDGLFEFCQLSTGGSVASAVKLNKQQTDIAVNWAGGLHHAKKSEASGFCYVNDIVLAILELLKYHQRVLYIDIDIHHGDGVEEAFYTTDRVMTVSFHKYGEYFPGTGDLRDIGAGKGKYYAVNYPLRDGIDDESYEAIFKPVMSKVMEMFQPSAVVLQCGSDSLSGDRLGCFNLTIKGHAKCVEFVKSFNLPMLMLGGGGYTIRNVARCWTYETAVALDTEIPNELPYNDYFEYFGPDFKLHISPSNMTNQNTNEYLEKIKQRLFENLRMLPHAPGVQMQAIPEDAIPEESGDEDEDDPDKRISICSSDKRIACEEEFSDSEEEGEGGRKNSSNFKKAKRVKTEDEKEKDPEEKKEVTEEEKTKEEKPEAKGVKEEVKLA

IC50 (HDAC1): 0.108 µM
IC50 (HDAC4): 6.14 µM
melting point: 257 to 258 °C
IC50 (in vitro): 65.7 ± 1.7 µM
Structure (SMILES): CCCn1c(N)c(C(c2ccc(Cl)cc2)c2c(N)n(CCC)c(=O)[nH]c2=O)c(=O)[nH]c1=O [Compound 5m, 5,5′-((4-Chlorophenyl)methylene)bis(6-amino-1-propylpyrimidine-2,4(1H,3H)-dione)]
IC50 [1]: 52 ± 3.5 µM
IC50 [2]: 3.3 ± 0.56 µM
IC50 [3]: 78 ± 2 µM
%G0–G1 (HCT-116 cells [4]): 55.31%
%G2/M (HCT-116 cells [4]): 9.81%
%S (HCT-116 cells [4]): 34.88%
Apoptotic effect, times/fold compared to control cells (HCT-116 cells [5]; 37.59% versus 2.17% in control): ~17
DNA Content (%) Early (early apoptosis) (HCT-116 cells [5]; Annexin-V/PI): 22.36%
DNA Content (%) Late (late apoptosis) (HCT-116 cells [5]; Annexin-V/PI): 13.14%
DNA Content (%) Total (apoptotic effect) (HCT-116 cells [5]; Annexin-V/PI): 37.59%
Necrosis (HCT-116 cells [5]; Annexin-V/PI): 2.09
RT-PCR (Fold Change) Caspase-3 (caspase-3): 5 Fold Change and 4.891 Fold Change
RT-PCR (Fold Change) Caspase-8 (caspase-8): 2.5 Fold Change and 2.655 Fold Change
